Data on one compound can be found in patent publication US20250361240A1, “PYRANOPYRIDINE COMPOUND, PROCESS FOR PREPARING THE SAME, PHARMACEUTICAL COMPOSITION AND USE THEREOF” (Zhejiang Yangli Pharmaceutical Technology Co., Ltd., priority 2024, published 2025).

Where two headings read alike, the source gives them in different places.

Data set [1] concerns the target CYP2C19 (Homo sapiens (Human), UniProt P33261). The data set can be described thus: In vitro inhibitory activity against common CYP450 enzymes: CYP2C19. The class given is in vitro ADME. As to conditions: microsomes, substrate (S)-(+)-Mephenytoin. Here is the method:
A working solution of the test compound was prepared in a solvent of dimethyl sulfoxide (DMSO) (starting at a final concentration of 50 μM, 3-fold dilution of 7 concentration points). The corresponding microsomes (CORNING, Cat No.452117) and the corresponding substrate solution were prepared (components were shown in Table 2). The working solution of the test compound and the corresponding microsomes were mixed with the corresponding substrate solution and the HLM working solution. The mixture was preheated in a 37.0° C. water bath for 10 min. NADPH cofactor (BONTAC, Cat No.BT04) was added. The resultant mixture was incubated for 10 min in a 37.0° C. water bath. The reaction was terminated by adding cold stop solution. [table] [table] The sample was centrifuged at 4000 rpm for 20 min to precipitate protein and the supernatant was transferred to HPLC water and shaken for 10 min.

Data set [2] deals with human CYP11B2 (Homo sapiens (Human), UniProt P19099). Nature of the data set: Inhibitory activity against hCYP11B2 in G-402 CYP11B2 high expression stable transformants (aldosterone HTRF). The class given is cell-based. The procedure: 1. Experimental System: G-402 CYP11B2 or CYP11B1 High Expression Stable Transformants
The above-mentioned high-expression stable transformants were constructed based on human […] cell line G-402. The artificial lentiviruses were introduced into human CYP11B2 (NM_000498.3) and CYP11B1 (NM_000497.4), respectively.
Maintenance medium: McCoy's 5A (modified, #16600082, GIBCO)+10% FBS (GIBCO)+1 μg/mL puromycin (A1113803, GIBCO).
Resuscitation and seeding medium: McCoy's 5A (modified, #16600082, GIBCO)+10% FBS (GIBCO).
Reaction medium: DMEM/F12 (#11320033, GIBCO)+2.5% activated charcoal filtered FBS (S11695, R & D).
Seeding: Cells were cultured to a suitable state after resuscitation with maintenance medium, and 96-well flat plates were seeded with seeding medium according to 1×10^4/100 μL/well (unified cell volume).
Changing solution: The supernatant was aspirated and discarded after seeding overnight (>12 hours) and adherence. 100-150 μL/well serum-free medium was added, and after being aspirated. After aspiration, 50 μL/well reaction medium was added for later use.
Formulation: Compound was diluted with reaction medium containing 0.4 μM substrate (final experimental concentration is 0.2 μM):
CYP11B2 substrate: 11-deoxycorticosterone (11-deoxycorticosterone, S4243, selleckchem). The final reaction concentration was 0.2 μM
Loading: The above compound dilutions were added to the cell plates at 50 μL/well. The background and control wells were set.
Treating and sampling: The cell plates were incubated in a cell incubator for 16 hours after loading, and then each cell plate was centrifuged at 450 g for 2 min. 75 μL supernatant was transferred to a collection plate and frozen at −80° C. for future use (or direct detection).
Detection: Homogeneous time-resolved fluorescence kit (Cisbio HTRF kit, Cat.64ALDPEG, Cat.62CRTPEG) was used to determine the concentration of aldosterone or cortisol in the supernatant.
Analysis: The absolute IC50 (Abs IC50) for each compound was calculated using a four parameter fit.
Background: Time-resolved FRET reads energy transfer from a long-lived donor to a nearby acceptor.

Data set [3] is described as follows: Pharmacokinetic test in cynomolgus monkeys (LC/MS). The data set is classed as in vivo, cynomolgus monkeys (Macaca fascicularis). Particulars: both sexes, cynomolgus monkey, plasma; for AUC(0-t): read-out: AUC0-24 h. The text has this: Adult cynomolgus monkeys (Macaca fascicularis) with suitable body weight and age were selected. 1 male and 1 female cynomolgus monkeys were used for experiment. The adaptation period was 1 week. On the day of the experiment, monkeys were individually housed in stainless steel mesh cages for testing.
Oral treatment and ACTH working solution (working solution diluted to the desired concentration in PBS sterile solution by ultrapure water filtration through a 0.22 μm filter using Tetracosactrin (HY-P0060, MCE)) were administered as follows: • T=0, 2 monkeys in each group were orally administered 0.5 mg/kg (compound was suspended in 5% aqueous sodium hydroxymethylcellulose solution as vehicle) in a fixed volume of 2 mL/kg; • T=+1 hour (i.e., 1 hour after administration), 14.5 μg/kg of the aforementioned ACTH working solution was injected intramuscularly.
Sampling test: Blood samples (collected in EDTA anticoagulant tubes) were collected before oral administration (Pre-dose) and 0.5 h, 1 h, 2 h, 4 h, 6 h and 12 h after administration for cortisol concentration measurement in plasma. The blood was centrifuged at 10000 rpm for 15 minutes at 4° C., followed by separation of the plasma and uniform storage at −80° C. for further analysis using an Roche biochemical analyzer to detect aldosterone and cortisol in plasma, and a portion of the plasma (0.5 h, 1 h, 2 h, 4 h, 6 h, and 12 h after administration, and an additional blood collection after 24 h) was taken simultaneously to determine the pharmacokinetic parameters by LC/MS.
The above experiment was repeated except that: T=0, two monkeys in each group were orally administered at a dose of 0.05 mg/kg (compound was suspended in 5% aqueous sodium hydroxymethylcellulose as vehicle) in a fixed volume of 2 mL/kg.

Chain of human CYP11B2 (P19099 25-503): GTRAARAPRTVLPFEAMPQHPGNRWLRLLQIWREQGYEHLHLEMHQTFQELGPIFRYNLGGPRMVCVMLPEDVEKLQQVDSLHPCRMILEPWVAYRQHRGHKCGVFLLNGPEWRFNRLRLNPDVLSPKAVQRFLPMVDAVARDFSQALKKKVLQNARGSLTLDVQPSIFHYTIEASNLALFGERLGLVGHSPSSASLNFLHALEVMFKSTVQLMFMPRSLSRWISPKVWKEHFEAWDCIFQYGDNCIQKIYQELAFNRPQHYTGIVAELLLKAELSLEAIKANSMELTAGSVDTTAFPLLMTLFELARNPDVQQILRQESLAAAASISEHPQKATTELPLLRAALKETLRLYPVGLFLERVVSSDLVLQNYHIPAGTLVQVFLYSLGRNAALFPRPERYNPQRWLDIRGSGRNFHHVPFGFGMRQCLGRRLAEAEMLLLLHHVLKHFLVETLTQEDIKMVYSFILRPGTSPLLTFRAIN
Chain of CYP2C19 (P33261 whole entry): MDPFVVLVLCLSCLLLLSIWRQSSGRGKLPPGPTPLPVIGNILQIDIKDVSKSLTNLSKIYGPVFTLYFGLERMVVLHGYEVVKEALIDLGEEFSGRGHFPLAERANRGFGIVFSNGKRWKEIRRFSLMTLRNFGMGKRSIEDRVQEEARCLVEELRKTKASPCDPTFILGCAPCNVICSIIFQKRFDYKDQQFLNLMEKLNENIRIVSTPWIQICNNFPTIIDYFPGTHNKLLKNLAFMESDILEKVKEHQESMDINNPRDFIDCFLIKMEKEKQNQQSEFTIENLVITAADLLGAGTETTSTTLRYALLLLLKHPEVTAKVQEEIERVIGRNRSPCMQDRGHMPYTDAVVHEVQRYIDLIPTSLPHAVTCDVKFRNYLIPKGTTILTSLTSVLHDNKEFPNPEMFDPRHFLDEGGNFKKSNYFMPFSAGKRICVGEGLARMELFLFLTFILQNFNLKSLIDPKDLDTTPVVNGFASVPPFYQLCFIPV

As a reminder, the IC50 is the concentration that gives 50% inhibition. As a reminder, the Cmax is the highest concentration seen after dosing. The term Tmax denotes the time from dosing to the highest level. For orientation: half-life means the time in which the quantity being followed falls by half. Lower therefore signals rapid decline. `CCC(=O)N[C@@H]1CCCc2c(-c3ccc4c(c3)CCC(=O)N4C)cncc21` [Baxdrostat, reference compound] showed an IC50 in data set [1] of 6.52 µM. Besides, the IC50 in data set [2] (G-402 CYP11B2 cells, 0.2 μM 11-deoxycorticosterone, 16 hours, read-out: hCYP11B2 (AS) Abs IC50) turned out to be 0.0281 µM. Moreover, the “hCYP11B ½ Selectivity Fold” value in data set [2] (hCYP11B1 IC50 relative to hCYP11B2 IC50) is 119.99 Fold. Moreover, in data set [3] (0.05 mg/kg, 0.05mpk oral), the Cmax was 0.00613 µg/mL, the time to peak (Tmax) turned out to be 2 h, the half-life is 10.9 h and the AUC(0-t) worked out at 0.0903 µg·h/mL. In data set [3] (0.5 mg/kg, 0.5mpk oral), the Cmax amounted to 0.0561 µg/mL, the Tmax came to 2 h, the half-life was 9.25 h and the AUC(0-t) was 0.606 µg·h/mL.
